Paper PMC6393295, “Archaeal NSUN6 catalyzes m^5C72 modification on a wide-range of specific tRNAs” (Nucleic Acids Research, 2018)

Columns and labels:
[1] = molecular target: T1, PhNSun6 (PH1991) (Pyrococcus horikoshii, UniProt O57712); experiment: X-ray crystal structure of the complex, […] A; type: binding; details: co-crystallised with 1 mM ligand, pH 6.5, 16 °C; Rossmann-fold cofactor site; no tRNA
T1 construct: full length (domains mapped to residues 1-389); E. coli Rosetta (DE3); 2 chains in P1 crystal
T1 sequence (O57712 1-389): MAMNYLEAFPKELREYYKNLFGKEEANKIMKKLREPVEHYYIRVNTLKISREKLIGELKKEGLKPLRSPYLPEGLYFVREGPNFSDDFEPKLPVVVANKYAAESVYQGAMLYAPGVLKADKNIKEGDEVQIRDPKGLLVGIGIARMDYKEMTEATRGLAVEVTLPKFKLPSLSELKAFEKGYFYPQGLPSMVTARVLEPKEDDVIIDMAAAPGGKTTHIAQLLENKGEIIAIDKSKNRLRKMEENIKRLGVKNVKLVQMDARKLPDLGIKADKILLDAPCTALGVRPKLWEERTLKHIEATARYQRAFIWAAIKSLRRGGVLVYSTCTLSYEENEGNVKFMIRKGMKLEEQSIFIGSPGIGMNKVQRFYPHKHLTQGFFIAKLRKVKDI

[2] = molecular target: T1, PhNSun6 (PH1991); experiment: X-ray crystal structure of the complex, […] A; type: binding; details: co-crystallised with 1 mM ligand, pH 6.5, 16 °C, Rossmann-fold cofactor site, no tRNA

`Nc1ncnc2c1ncn2[C@@H]1O[C@H](CSCC[C@H](N)C(=O)O)[C@@H](O)[C@H]1O` [SAH, S-adenosyl-homocysteine] was tested, and the “X-ray crystal structure of the complex, 2.18 A” value [1] was “form the binding pocket for the cofactor SAH, as shown in Figure 5B”.
`C[S+](CC[C@H](N)C(=O)O)C[C@H]1O[C@@H](n2cnc3c(N)ncnc32)[C@H](O)[C@@H]1O` (stereo partly drawn) [SAM, S-adenosyl-methionine] was tested, and the “X-ray crystal structure of the complex, 2.50 A” value ([2]; methyl donor, also turned over with tRNA at 65 °C, pH 7.5) was “PhNSun6 complexed with SAM, SFG and SAH”.
`Nc1ncnc2c1ncn2[C@@H]1O[C@H](C[C@@H](N)CC[C@H](N)C(=O)O)[C@@H](O)[C@H]1O` [SFG, sinefungin] was tested, and the “X-ray crystal structure of the complex, 2.50 A” value [2] was “PhNSun6 complexed with SAM, SFG and SAH”.
